Test results: BindingDB's records for doi:10.1016/S0960-894X(96)00563-X (1996)

Each molecule was assayed against Tachykinin NK1 receptor (Bos taurus) (assay: Binding affinity against NK1 receptor by displacement of [3H]SP from bovine retina membranes).

SMILES	IC50 [nM]
Cc1cc(C)cc(C(=O)N2CC[C@H](NCc3ccnc4ccccc34)C[C@H]2Cc2ccc(C(N)=O)cc2)c1 [4-{(2R,4S)-1-(3,5-Dimethyl-benzoyl)-4-[(quinolin-4-ylmethyl)-amino]-piperidin-2-ylmethyl}-benzamide]	100
Cc1cc(C)cc(C(=O)N2CC[C@H](NCc3ccnc4ccccc34)C[C@H]2Cc2ccc(C#N)cc2)c1 [4-{(2R,4S)-1-(3,5-Dimethyl-benzoyl)-4-[(quinolin-4-ylmethyl)-amino]-piperidin-2-ylmethyl}-benzonitrile]	21
Cc1cc(C)cc(C(=O)N2CC[C@H](NCc3ccnc4ccccc34)C[C@H]2Cc2ccc(C(F)(F)F)cc2)c1 [(3,5-Dimethyl-phenyl)-[(2R,4S)-4-[(quinolin-4-ylmethyl)-amino]-2-(4-trifluoromethyl-benzyl)-piperidin-1-yl]-methanone]	11
COc1cccc(C[C@@H]2C[C@@H](NCc3ccnc4ccccc34)CCN2C(=O)c2cc(C)cc(C)c2)c1 [(3,5-Dimethyl-phenyl)-{(2R,4S)-2-(3-methoxy-benzyl)-4-[(quinolin-4-ylmethyl)-amino]-piperidin-1-yl}-methanone]	27
COc1ccc(C[C@@H]2C[C@@H](NCc3ccnc4ccccc34)CCN2C(=O)c2cc(C)cc(C)c2)cc1 [(3,5-Dimethyl-phenyl)-{(2R,4S)-2-(4-methoxy-benzyl)-4-[(quinolin-4-ylmethyl)-amino]-piperidin-1-yl}-methanone]	14
Cc1cc(C)cc(C(=O)N2CC[C@H](NCc3ccnc4ccccc34)C[C@H]2Cc2ccc([N+](=O)[O-])cc2)c1 [(3,5-Dimethyl-phenyl)-{(2R,4S)-2-(4-nitro-benzyl)-4-[(quinolin-4-ylmethyl)-amino]-piperidin-1-yl}-methanone]	3
Cc1cc(C)cc(C(=O)N2CC[C@H](NCc3ccnc4ccccc34)C[C@H]2Cc2ccc3ccccc3c2)c1 [(3,5-Dimethyl-phenyl)-{(2R,4S)-2-naphthalen-2-ylmethyl-4-[(quinolin-4-ylmethyl)-amino]-piperidin-1-yl}-methanone]	14
Cc1cc(C)cc(C(=O)N2CC[C@H](NCc3ccnc4ccccc34)C[C@H]2CCc2ccccc2)c1 [(3,5-Dimethyl-phenyl)-{(2R,4S)-2-phenethyl-4-[(quinolin-4-ylmethyl)-amino]-piperidin-1-yl}-methanone]	190
Cc1cc(C)cc(C(=O)N2CC[C@H](NCc3ccnc4ccccc34)C[C@H]2Cc2ccc(Cl)cc2Cl)c1 [{(2R,4S)-2-(2,4-Dichloro-benzyl)-4-[(quinolin-4-ylmethyl)-amino]-piperidin-1-yl}-(3,5-dimethyl-phenyl)-methanone]	600
Cc1cc(C)cc(C(=O)N2CC[C@H](NCc3ccnc4ccccc34)C[C@H]2Cc2ccc(Cl)c(Cl)c2)c1 [{(2R,4S)-2-(3,4-Dichloro-benzyl)-4-[(quinolin-4-ylmethyl)-amino]-piperidin-1-yl}-(3,5-dimethyl-phenyl)-methanone]	9
Cc1cc(C)cc(C(=O)N2CC[C@H](NCc3ccnc4ccccc34)C[C@H]2Cc2cc(Br)cc(Br)c2)c1 [{(2R,4S)-2-(3,5-Dibromo-benzyl)-4-[(quinolin-4-ylmethyl)-amino]-piperidin-1-yl}-(3,5-dimethyl-phenyl)-methanone]	52
Cc1cc(C)cc(C(=O)N2CC[C@H](NCc3ccnc4ccccc34)C[C@H]2Cc2ccc(Cl)cc2)c1 [{(2R,4S)-2-(4-Chloro-benzyl)-4-[(quinolin-4-ylmethyl)-amino]-piperidin-1-yl}-(3,5-dimethyl-phenyl)-methanone]	13
